Measurements from ChEMBL document CHEMBL4196234, “Deciphering Binding Interactions of IL-23R with HDX-MS: Mapping Protein and Macrocyclic Dodecapeptide Ligands” (ACS Med Chem Lett, 2018).

What was measured:
Interleukin-23 receptor [1] = target: T1, Interleukin-23 receptor (Homo sapiens, UniProt Q5VWK5); assay: Binding affinity to recombinant human flag/His-tagged IL-23R (1 to 353 residues) expressed in HEK293F cells assessed as disruption of biotinylated IL-23 binding to receptor preincubated for 1 hr followed by biotinylated IL-23 addition measured after over night incubation by AlphaLISA assay; assay type: cell-based
T1 sequence (Q5VWK5 whole entry): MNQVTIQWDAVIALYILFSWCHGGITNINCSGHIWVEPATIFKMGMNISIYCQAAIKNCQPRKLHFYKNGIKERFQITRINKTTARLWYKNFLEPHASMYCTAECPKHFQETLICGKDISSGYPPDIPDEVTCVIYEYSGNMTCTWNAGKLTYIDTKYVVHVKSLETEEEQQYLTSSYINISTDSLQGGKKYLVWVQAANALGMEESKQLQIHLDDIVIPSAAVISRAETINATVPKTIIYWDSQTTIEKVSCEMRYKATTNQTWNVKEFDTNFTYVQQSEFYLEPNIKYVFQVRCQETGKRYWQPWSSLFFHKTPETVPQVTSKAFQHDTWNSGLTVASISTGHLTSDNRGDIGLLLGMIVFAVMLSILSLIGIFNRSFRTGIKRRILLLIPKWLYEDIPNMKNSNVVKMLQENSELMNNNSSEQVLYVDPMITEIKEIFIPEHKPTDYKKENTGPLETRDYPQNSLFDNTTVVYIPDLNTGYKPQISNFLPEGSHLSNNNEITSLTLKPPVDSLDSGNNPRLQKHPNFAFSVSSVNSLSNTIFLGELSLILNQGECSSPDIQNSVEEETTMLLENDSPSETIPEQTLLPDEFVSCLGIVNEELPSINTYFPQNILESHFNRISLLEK

Interleukin-23 receptor [2] = target: T1, Interleukin-23 receptor; assay: Binding affinity to recombinant human flag/His-tagged IL-23R (1 to 353 residues) expressed in HEK293F cells measured over 90 secs by surface plasmon resonance assay
Interleukin-23 receptor [3] = target: T1, Interleukin-23 receptor; assay: Binding affinity to recombinant human flag/His-tagged IL-23R (1 to 353 residues) expressed in HEK293F cells assessed as dissociation rate constant measured over 90 secs by surface plasmon resonance assay
Interleukin-23 receptor [4] = target: T1, Interleukin-23 receptor; assay: Binding affinity to recombinant human flag/His-tagged IL-23R (1 to 353 residues) expressed in HEK293F cells assessed as disruption of biotinylated IL-23 binding to receptor preincubated for 1 hr followed by biotinylated IL-23 addition measured after 1 hr by TR-FRET assay; assay type: cell-based
[5] = target: T2, Interleukin-23 receptor (Homo sapiens) (UniProt Q5VWK5); assay: Binding affinity to recombinant human flag/His-tagged IL-23R (1 to 353 residues) expressed in HEK293F cells assessed as association rate constant measured over 90 secs by surface plasmon resonance assay
T2 sequence (whole entry): T1 sequence (Q5VWK5 whole entry)

## CC(=O)N[C@H]1CCSC[C@@H](C(=O)N[C@@H](Cc2ccc(OCCN)cc2)C(=O)N[C@@H](Cc2c[nH]c3ccccc23)C(=O)N[C@@](C)(CCCCN)C(=O)N[C@@H](CCC(=O)O)C(=O)N[C@@H](CC(N)=O)C(=O)NCC(N)=O)NC(=O)[C@H](CCC(N)=O)NC(=O)[C@H](Cc2c[nH]c3ccccc23)NC(=O)[C@H]([C@@H](C)O)NC(=O)[C@H](CCC(N)=O)NC1=O
Interleukin-23 receptor [1]
  IC50: 2.7 nM
Interleukin-23 receptor [2]
  Kd: 1.81 to 2 nM
Interleukin-23 receptor [3]
  Kd: 2.74 ×10⁻² (1/s)
Interleukin-23 receptor [4]
  IC50: 5.1 nM
[5]
  Ka: 1.51 ×10⁷ (1/Ms)
